ChEMBL document CHEMBL5120803, “Design, synthesis and activity study of a novel PI3K degradation by hijacking VHL E3 ubiquitin ligase” (2022)
Active and inactive are the calls of the source. No cut-off for these calls is given here.

Legend:
HeLa = test: Antiproliferative activity against human HeLa cells assessed as inhibition of cell proliferation at 10 uM incubated for 72 hrs by CCK8 assay relative to control; type: functional; design: scale not given: the % may be the effect or the level left
HCT-116 = test: Antiproliferative activity against human HCT-116 cells assessed as inhibition of cell proliferation at 10 uM incubated for 72 hrs by CCK8 assay relative to control; type: functional; design: scale not given: the % may be the effect or the level left
[1] = target: Phosphatidylinositol 4,5-bisphosphate 3-kinase catalytic subunit alpha isoform (Homo sapiens) (UniProt P42336); test: Inhibition on PI3Kalpha (unknown origin) at 1 nM by kinase-glo plus luminescent assay relative to control
HT-29 = test: Antiproliferative activity against human HT-29 cells assessed as inhibition of cell proliferation at 10 uM incubated for 72 hrs by CCK8 assay relative to control; type: functional; design: scale not given: the % may be the effect or the level left
[2] = target: T1, von Hippel-Lindau disease tumor suppressor/Phosphatidylinositol 4,5-bisphosphate 3-kinase catalytic subunit alpha isoform (Homo sapiens) (UniProt P42336+P40337); test: PROTAC activity at VHL/PI3K in human HeLa cells assessed as induction of PI3Kalpha degradation at 10 uM incubated for 24 hrs by Western blotting analysis; type: cell-based
[3] = target: T1, von Hippel-Lindau disease tumor suppressor/Phosphatidylinositol 4,5-bisphosphate 3-kinase catalytic subunit alpha isoform (Homo sapiens); test: PROTAC activity at VHL/PI3K in human HeLa cells assessed as induction of PI3Kalpha degradation at 1 to 10 uM incubated for 24 hrs by Western blotting analysis; type: cell-based; conditions: dose 1-10 µM
[4] = target: T1, von Hippel-Lindau disease tumor suppressor/Phosphatidylinositol 4,5-bisphosphate 3-kinase catalytic subunit alpha isoform (Homo sapiens); test: PROTAC activity at VHL/PI3K in human HeLa cells assessed as reduction in AKT phosphorylation at 10 uM incubated for 24 hrs by Western blotting analysis; type: cell-based
[5] = target: T1, von Hippel-Lindau disease tumor suppressor/Phosphatidylinositol 4,5-bisphosphate 3-kinase catalytic subunit alpha isoform (Homo sapiens); test: PROTAC activity at VHL/PI3K in human HeLa cells assessed as redcution in AKT phosphorylation at 3 uM incubated for 24 hrs by Western blotting analysis; type: cell-based
[6] = target: T1, von Hippel-Lindau disease tumor suppressor/Phosphatidylinositol 4,5-bisphosphate 3-kinase catalytic subunit alpha isoform (Homo sapiens); test: PROTAC activity at VHL/PI3K in human HeLa cells assessed as induction of PI3Kalpha degradation at 3 uM incubated for 24 hrs by Western blotting analysis; type: cell-based
[7] = target: T1, von Hippel-Lindau disease tumor suppressor/Phosphatidylinositol 4,5-bisphosphate 3-kinase catalytic subunit alpha isoform (Homo sapiens); test: PROTAC activity at VHL/PI3K in human HeLa cells assessed as induction of PI3Kalpha degradation by Western blotting analysis; type: cell-based; conditions: time 2-12 hrs, TDE = time-dependent effect
[8] = target: T1, von Hippel-Lindau disease tumor suppressor/Phosphatidylinositol 4,5-bisphosphate 3-kinase catalytic subunit alpha isoform (Homo sapiens); test: PROTAC activity at VHL/PI3K in human HeLa cells assessed as inhibition of AKT phosphorylation by Western blotting analysis; type: cell-based; conditions: time 2-12 hrs, TDE = time-dependent effect

T1 sequence (P40337 whole entry, looked up, canonical isoform): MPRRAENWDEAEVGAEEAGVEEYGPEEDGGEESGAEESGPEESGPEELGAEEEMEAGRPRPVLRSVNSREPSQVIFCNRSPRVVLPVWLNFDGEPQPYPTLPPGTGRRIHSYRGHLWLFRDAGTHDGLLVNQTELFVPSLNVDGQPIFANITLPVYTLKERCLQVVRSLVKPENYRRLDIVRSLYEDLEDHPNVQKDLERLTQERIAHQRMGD
T1 sequence (P42336 whole entry, looked up, canonical isoform): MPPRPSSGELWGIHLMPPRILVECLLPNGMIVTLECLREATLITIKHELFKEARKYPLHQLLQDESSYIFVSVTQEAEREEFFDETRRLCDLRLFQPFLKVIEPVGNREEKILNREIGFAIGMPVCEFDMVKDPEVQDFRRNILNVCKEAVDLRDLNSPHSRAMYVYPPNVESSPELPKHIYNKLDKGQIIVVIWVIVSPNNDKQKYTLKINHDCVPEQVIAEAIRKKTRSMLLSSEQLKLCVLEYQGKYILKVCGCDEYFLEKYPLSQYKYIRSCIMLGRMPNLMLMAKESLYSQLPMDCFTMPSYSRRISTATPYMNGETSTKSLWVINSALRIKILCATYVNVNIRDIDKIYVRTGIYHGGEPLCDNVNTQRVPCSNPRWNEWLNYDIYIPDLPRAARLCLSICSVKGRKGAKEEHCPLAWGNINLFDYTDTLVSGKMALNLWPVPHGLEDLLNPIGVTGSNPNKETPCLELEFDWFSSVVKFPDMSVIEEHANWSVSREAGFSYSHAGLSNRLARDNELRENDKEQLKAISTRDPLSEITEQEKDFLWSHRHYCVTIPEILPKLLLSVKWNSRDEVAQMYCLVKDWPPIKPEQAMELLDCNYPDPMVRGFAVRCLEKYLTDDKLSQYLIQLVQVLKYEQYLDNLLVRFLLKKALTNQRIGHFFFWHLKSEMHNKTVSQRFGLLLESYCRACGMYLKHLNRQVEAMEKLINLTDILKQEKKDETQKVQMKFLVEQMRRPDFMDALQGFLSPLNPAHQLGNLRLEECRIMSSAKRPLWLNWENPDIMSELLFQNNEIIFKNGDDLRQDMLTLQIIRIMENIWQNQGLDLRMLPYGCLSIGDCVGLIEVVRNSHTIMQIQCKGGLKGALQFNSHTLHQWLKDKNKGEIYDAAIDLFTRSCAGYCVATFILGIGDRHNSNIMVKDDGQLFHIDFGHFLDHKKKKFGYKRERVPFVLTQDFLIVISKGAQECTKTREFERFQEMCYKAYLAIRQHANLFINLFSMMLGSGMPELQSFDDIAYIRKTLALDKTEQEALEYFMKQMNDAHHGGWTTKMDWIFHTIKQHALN
Sequence of Phosphatidylinositol 4,5-bisphosphate 3-kinase catalytic subunit alpha isoform (Homo sapiens) (P42336 whole entry, canonical isoform): as the sequence (P42336 whole entry, looked up, canonical isoform) above

| Compound | Activity (HeLa) [%] | Activity (HCT-116) [%] | inhibition [1] [%] | Activity (HT-29) [%] | Activity [2] | Activity [3] | Activity [4] | Activity [5] | Activity [6] | Activity [7] | Activity [8] |
| --- | --- | --- | --- | --- | --- | --- | --- | --- | --- | --- | --- |
| COc1ncc(-c2ccc3ncc(-c4nnc(-c5ccccc5C(=O)NCCCCC(=O)N[C@H](C(=O)N5C[C@@H](O)C[C@@H]5C(=O)NCc5ccc(-c6scnc6C)cc5)C(C)(C)C)o4)n3c2)cc1NS(=O)(=O)c1ccc(F)cc1F | 32.2 | 23.94 | 22.2 | 82.88 |  |  |  |  |  |  |  |
| COc1ncc(-c2ccc3ncc(-c4nnc(-c5ccccc5C(=O)NCCOCCOCCOCCOCC(=O)N[C@H](C(=O)N5CC(O)CC5C(=O)NCc5ccc(-c6scnc6C)cc5)C(C)(C)C)o4)n3c2)cc1NS(=O)(=O)c1ccc(F)cc1F (single isomer, unassigned) | 89.6 | 57.87 | 57.5 | 50.35 |  |  |  |  |  |  |  |
| COc1ncc(-c2ccc3ncc(-c4nnc(-c5ccccc5C(=O)NCCOCCOCCOCCOCCOCC(=O)N[C@H](C(=O)N5C[C@@H](O)C[C@@H]5C(=O)NCc5ccc(-c6scnc6C)cc5)C(C)(C)C)o4)n3c2)cc1NS(=O)(=O)c1ccc(F)cc1F | 85.58 | 37.32 | 51.9 | 61.35 |  |  |  |  |  |  |  |
| COc1ncc(-c2ccc3ncc(-c4nnc(-c5ccccc5C(=O)NCCCCCC(=O)N[C@H](C(=O)N5C[C@@H](O)C[C@@H]5C(=O)NCc5ccc(-c6scnc6C)cc5)C(C)(C)C)o4)n3c2)cc1NS(=O)(=O)c1ccc(F)cc1F | 94.03 | 41.16 | 60 | 89.26 | Active | Active | Active | Active | Active |  |  |
| COc1ncc(-c2ccc3ncc(-c4nnc(-c5ccccc5C(=O)NCCOCC(=O)N[C@H](C(=O)N5C[C@@H](O)C[C@@H]5C(=O)NCc5ccc(-c6scnc6C)cc5)C(C)(C)C)o4)n3c2)cc1NS(=O)(=O)c1ccc(F)cc1F | 23.41 | 25.32 | 40.1 | 51.09 |  |  |  |  |  |  |  |
| COc1ncc(-c2ccc3ncc(-c4nnc(-c5ccccc5C(=O)O)o4)n3c2)cc1NS(=O)(=O)c1ccc(F)cc1F | 1.62 | 8.23 | 67.1 |  |  |  |  |  |  |  |  |
| COc1ncc(-c2ccc3ncc(-c4nnc(-c5ccccc5C(=O)NCCOCCOCCOCCOCCOCCOCC(=O)N[C@H](C(=O)N5C[C@@H](O)C[C@@H]5C(=O)NCc5ccc(-c6scnc6C)cc5)C(C)(C)C)o4)n3c2)cc1NS(=O)(=O)c1ccc(F)cc1F | 91.27 | 56.24 | 48.6 |  |  |  |  |  |  |  |  |
| COc1ncc(-c2ccc3ncc(-c4nnc(-c5ccccc5C(=O)NCCCCCCC(=O)N[C@H](C(=O)N5C[C@@H](O)C[C@@H]5C(=O)NCc5ccc(-c6scnc6C)cc5)C(C)(C)C)o4)n3c2)cc1NS(=O)(=O)c1ccc(F)cc1F | 96.33 | 50.3 | 49.8 | 72.18 | Active | Active | Active | Active | Active | Tde | Tde |
| COc1ncc(-c2ccc3ncc(-c4nnc(-c5ccccc5C(=O)NCCOCCOCCOCC(=O)N[C@H](C(=O)N5C[C@@H](O)C[C@@H]5C(=O)NCc5ccc(-c6scnc6C)cc5)C(C)(C)C)o4)n3c2)cc1NS(=O)(=O)c1ccc(F)cc1F | 90.1 | 48.88 | 59.1 | 22.69 |  |  |  |  |  |  |  |
| COc1ncc(-c2ccc3ncc(-c4nnc(-c5ccccc5C(=O)NCCCCCCCC(=O)N[C@H](C(=O)N5CC(O)CC5C(=O)NCc5ccc(-c6scnc6C)cc5)C(C)(C)C)o4)n3c2)cc1NS(=O)(=O)c1ccc(F)cc1F (single isomer, unassigned) | 87.89 | 70.03 | 65.2 | 74.22 |  |  |  |  |  |  |  |
| COc1ncc(-c2ccc3ncc(-c4nnc(-c5ccccc5C(=O)NCCOCCOCC(=O)N[C@H](C(=O)N5C[C@@H](O)C[C@@H]5C(=O)NCc5ccc(-c6scnc6C)cc5)C(C)(C)C)o4)n3c2)cc1NS(=O)(=O)c1ccc(F)cc1F | 89.21 | 33.84 | 31.7 | 57.14 |  |  |  |  |  |  |  |
| COC(=O)c1ccccc1-c1nnc(-c2cnc3ccc(-c4cnc(OC)c(NS(=O)(=O)c5ccc(F)cc5F)c4)cn23)o1 | 99.37 | 91.65 | 70.2 | 80.36 |  |  |  |  |  |  |  |
| COc1ncc(-c2ccc3ncc(-c4nnc(-c5ccccc5C(=O)N[C@H](C(=O)N5C[C@@H](O)C[C@@H]5C(=O)NCc5ccc(-c6scnc6C)cc5)C(C)(C)C)o4)n3c2)cc1NS(=O)(=O)c1ccc(F)cc1F | 30.38 | 95.86 | 33.6 |  |  |  |  |  |  |  |  |
